Experimental data taken from patent US20050020582A1 (priority 2001, published 2005).
Read-outs that look alike come from different tables or passages of the source.

Tests used:
[1] = test system: neuroblastoma cells (ScN2a); settings: mouse
[2] = human, in vivo, cited from earlier work

## CN(C)CCCN1c2ccccc2Sc2ccc(Cl)cc21 [chlorpromazine]
[1]
  decrease in cell population (cytotoxic effects): 50%

## CCN(CC)CCCC(C)Nc1c2ccc(Cl)cc2nc2ccc(OC)cc12 (stereo not shown) [quinacrine]
[1]
  concentrations without cytotoxic effects on neuroblastoma cells: < 5 µM

## CSc1ccc2c(c1)N(CCC1CCCCN1C)c1ccccc1S2 (stereo not shown) [thioridazine]
[2]; po
  brain concentration: more than 80 μM
[2]
  brain concentration: 20 µM
